These results are taken from ChEMBL document CHEMBL4513148, “CO-ADD screening of Stellenbosch University (South Africa) compounds”.

One test has as its system HEK293. Put plainly: cells. The format is functional. To be noted: Homo sapiens, ATCC CRL1573, HEK293; ASSAY_TEST Inhibition of Cell Viability; detection method Resazurin; Fluorescence (ex560/em590); MEDIA DMEM with 10% FBS; plate type 384well; TC; CORNING #3712; time 18 hr.
The next test relates to Staphylococcus aureus. Put plainly: microbe, parasite or virus in culture. To be noted: ATCC 43300, 18 h, ASSAY_TEST Inhibition of Bacterial Growth, detection method Absorption (OD600), MEDIA CAMHB, plate type 384well, NBS, CORNING #3640.
The subject of another test is Escherichia coli. Put plainly: microbe, parasite or virus in culture. To be noted: ATCC 25922, 18 h, ASSAY_TEST Inhibition of Bacterial Growth, detection method Absorption (OD600), MEDIA CAMHB, plate type 384well, NBS, CORNING #3640.
In another test the test system is Klebsiella pneumoniae. Put plainly: microbe, parasite or virus in culture. To be noted: ATCC 700603, 18 h, ASSAY_TEST Inhibition of Bacterial Growth, detection method Absorption (OD600), MEDIA CAMHB, plate type 384well, NBS, CORNING #3640.
A further test relates to Pseudomonas aeruginosa. Briefly: microbe, parasite or virus in culture. To be noted: ATCC 27853, 18 h, ASSAY_TEST Inhibition of Bacterial Growth, detection method Absorption (OD600), MEDIA CAMHB, plate type 384well, NBS, CORNING #3640.
The test system of the next test is Acinetobacter baumannii. Put plainly: microbe, parasite or virus in culture. To be noted: ATCC 19606, 18 h, ASSAY_TEST Inhibition of Bacterial Growth, detection method Absorption (OD600), MEDIA CAMHB, plate type 384well, NBS, CORNING #3640.
Another test concerns Candida albicans. Briefly: microbe, parasite or virus in culture. Conditions: ATCC 90028, ASSAY_TEST Inhibition of Fungal Growth, detection method Absorption (OD530), plate type 384well, NBS, CORNING #3640.

≈ marks a conversion by molar mass, not a printed value.

Description for Acinetobacter baumannii: Antibacterial activity against Acinetobacter baumannii ATCC 19606 (CO-ADD:GN_034); MIC in CAMBH media using NBS plates, by OD600
Description for Candida albicans: Antifungal activity against Candida albicans ATCC 90028 (CO-ADD:FG_001); MIC in YNB media using NBS plates, by OD630
Description for Cryptococcus neoformans: Antifungal activity against Cryptococcus neoformans H99 ATCC 208821 (CO-ADD:FG_002); MIC in YNB media using NBS plates, by Resazurin OD(600-570)
Description for Escherichia coli: Antibacterial activity against Escherichia coli ATCC 25922 (CO-ADD:GN_001); MIC in CAMBH media using NBS plates, by OD(600)
Description for Klebsiella pneumoniae: Antibacterial activity against Klebsiella pneumoniae MDR ATCC 70063 (CO-ADD:GN_003); MIC in CAMBH media using NBS plates, by OD(600)
Description for Pseudomonas aeruginosa: Antibacterial activity against Pseudomonas aeruginosa ATCC 27853 (CO-ADD:GN_042); MIC in CAMBH media using NBS plates, by OD(600)
Description for Staphylococcus aureus: Antibacterial activity against Staphylococcus aureus MRSA ATCC 43300 (CO-ADD:GP_020); MIC in CAMBH media, using NBS plates, by OD(600)

`CCCCCCCNC(=O)CCNC(=O)[C@H](O)C(C)(C)COP(=O)(O)O` came in with a CC50 in the test with HEK293 above 32 µg/mL. The MIC with Cryptococcus neoformans, with Staphylococcus aureus, in the test with Escherichia coli, against Klebsiella pneumoniae, against Pseudomonas aeruginosa and in the test on Acinetobacter baumannii was above 32 µg/mL each time. In the test with Candida albicans, the MIC was above 32 µg/mL.
For the molecule `CC(C)(CO)[C@@H](O)C(=O)NCCC(=O)NCCc1ccccc1`, the CC50 in the test on HEK293 was above 32 µg/mL. Also, the MIC in the test on Cryptococcus neoformans was above 32 µg/mL; with Staphylococcus aureus, 32 µg/mL (≈ 99.3 µM); in the test on Escherichia coli, above 32 µg/mL; against Klebsiella pneumoniae it was above 32 µg/mL; against Pseudomonas aeruginosa, above 32 µg/mL; in the test with Acinetobacter baumannii it was above 32 µg/mL. For the same molecule, in the test on Candida albicans, the MIC is above 32 µg/mL.
In turn, `CCCCCCCNC(=O)CC(C)NC(=O)[C@H](O)C(C)(C)CO` (stereo not given in full) displayed a CC50 with HEK293 above 32 µg/mL. For the same molecule, the MIC in the test with Cryptococcus neoformans, in the test on Staphylococcus aureus, in the test with Escherichia coli, against Klebsiella pneumoniae, with Pseudomonas aeruginosa and with Acinetobacter baumannii was above 32 µg/mL in each case. Moreover, the MIC in the test on Candida albicans is above 32 µg/mL.
Take `CCCCCCCN(C)C(=O)CCNC(=O)[C@H](O)C(C)(C)CO`: the CC50 in the test on HEK293 is above 32 µg/mL. Further, the MIC against Cryptococcus neoformans, with Staphylococcus aureus, in the test with Escherichia coli, in the test with Klebsiella pneumoniae, with Pseudomonas aeruginosa and against Acinetobacter baumannii was above 32 µg/mL throughout. Moreover, the MIC against Candida albicans is above 32 µg/mL.
Turning to `CCCCCCCNC(=O)CCNC(=O)C(O)C(C)(C)CN` (stereo not given), in the test on HEK293, the CC50 is above 32 µg/mL. Besides, the MIC against Cryptococcus neoformans, in the test with Staphylococcus aureus, in the test with Escherichia coli, against Klebsiella pneumoniae, in the test on Pseudomonas aeruginosa and in the test on Acinetobacter baumannii was above 32 µg/mL throughout. Besides, the MIC against Candida albicans was above 32 µg/mL.
`CCCCCCCNC(=O)/C=C/NC(=O)[C@H](O)C(C)(C)CO` returned a CC50 in the test on HEK293 above 32 µg/mL. Moreover, the MIC in the test with Cryptococcus neoformans, in the test on Staphylococcus aureus, with Escherichia coli, in the test on Klebsiella pneumoniae, in the test on Pseudomonas aeruginosa and with Acinetobacter baumannii was above 32 µg/mL throughout. The same molecule registered an MIC with Candida albicans above 32 µg/mL.
In turn, `CCCCCCCNC(=O)C(C)CNC(=O)[C@H](O)C(C)(C)CO` (stereo not given in full) had a CC50 in the test on HEK293 above 32 µg/mL. The MIC in the test with Cryptococcus neoformans, against Staphylococcus aureus, against Escherichia coli, in the test with Klebsiella pneumoniae, against Pseudomonas aeruginosa and with Acinetobacter baumannii was above 32 µg/mL each time. The MIC in the test with Candida albicans was above 32 µg/mL.
In the test with HEK293, `CC(CNC(=O)[C@H](O)C(C)(C)CO)C(=O)NCCc1ccccc1` (stereo not given in full) returned a CC50 above 32 µg/mL. Besides, the MIC against Cryptococcus neoformans, against Staphylococcus aureus, in the test with Escherichia coli, against Klebsiella pneumoniae, in the test with Pseudomonas aeruginosa and against Acinetobacter baumannii was above 32 µg/mL each time. This molecule displayed an MIC against Candida albicans above 32 µg/mL.
The molecule `CCCCCCCNC(=O)CCNC(=O)[C@H](O)C(C)(C)CO` displayed a CC50 in the test on HEK293 above 32 µg/mL. Moreover, the MIC is above 32 µg/mL against Cryptococcus neoformans; 0.5 µg/mL (≈ 1.58 µM) with Staphylococcus aureus; above 32 µg/mL against Escherichia coli; above 32 µg/mL against Klebsiella pneumoniae; above 32 µg/mL with Pseudomonas aeruginosa; above 32 µg/mL in the test with Acinetobacter baumannii. Further, in the test with Candida albicans, the MIC was above 32 µg/mL.
Consider `CN(CCc1ccccc1)C(=O)CCNC(=O)[C@H](O)C(C)(C)CO`, for which, in the test on HEK293, the CC50 was above 32 µg/mL. Also, the MIC against Cryptococcus neoformans, in the test on Staphylococcus aureus, against Escherichia coli, with Klebsiella pneumoniae, against Pseudomonas aeruginosa and against Acinetobacter baumannii was above 32 µg/mL throughout. The molecule also showed an MIC with Candida albicans above 32 µg/mL.

What is called CC50 is the concentration giving 50% cytotoxicity. Lower therefore signals harm at low concentration.
